Results reported in patent US20260306527A1, “PRMT INHIBITOR COMPOUNDS AND THE USES THEREOF” (Purdue Research Foundation, priority 2023, published 2026).

Experiments:
PRMT3/4/5 = assay: inhibition of PRMT3/4/5 (summary); type: biochemical; conditions: range over PRMT3/4/5
Protocol: (§1) The selectivity of compounds YD1113 and YD1290 on PRMTs were performed by Reaction Biology Corp.

PRMT8 [1] = target: T1, PRMT8 (Homo sapiens, UniProt Q9NR22); assay: radioactive assay (Reaction Biology Corp.), inhibition of PRMT8; type: biochemical
Protocol: (§2) Next, the inhibition activity of the library was investigated for five PRMT members from type I PRMTs.
(§3) The PRMT 4, 6 and 8 methylation assays were performed by Reaction Biology corp.

PRMT4 [2] = assay: radioactive assay (Reaction Biology Corp.), inhibition of PRMT4; type: biochemical
Protocol: as §2, §3

PRMT4 [3] = target: T2, PRMT4 (Homo sapiens, UniProt Q86X55); assay: as above; type: biochemical
T2 sequence (Q86X55 1-608): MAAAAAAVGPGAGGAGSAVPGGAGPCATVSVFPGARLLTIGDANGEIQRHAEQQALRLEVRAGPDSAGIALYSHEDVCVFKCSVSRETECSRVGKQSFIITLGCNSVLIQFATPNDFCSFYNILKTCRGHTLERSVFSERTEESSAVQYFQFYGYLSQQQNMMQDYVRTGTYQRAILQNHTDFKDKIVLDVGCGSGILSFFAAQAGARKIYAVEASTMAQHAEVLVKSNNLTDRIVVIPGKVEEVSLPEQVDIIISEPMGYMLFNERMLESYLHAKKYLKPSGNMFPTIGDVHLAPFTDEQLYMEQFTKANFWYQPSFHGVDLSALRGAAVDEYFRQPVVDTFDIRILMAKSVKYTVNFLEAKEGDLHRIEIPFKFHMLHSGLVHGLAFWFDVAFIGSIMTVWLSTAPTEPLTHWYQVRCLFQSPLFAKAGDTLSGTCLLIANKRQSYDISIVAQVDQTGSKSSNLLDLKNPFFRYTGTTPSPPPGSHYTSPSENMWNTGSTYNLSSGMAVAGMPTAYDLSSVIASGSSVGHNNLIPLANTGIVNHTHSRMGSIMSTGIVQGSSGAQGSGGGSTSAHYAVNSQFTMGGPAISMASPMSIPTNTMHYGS
Protocol: as §2, §3

PRMT3 [4] = target: T3, PRMT3 (Homo sapiens, UniProt O60678); assay: SAHH-coupled fluorescence assay, inhibition of PRMT3; type: biochemical; design: PRMT3 (residues 211-531) was cloned into the pET28a-MHL expression vector; tag of the pET28a-MHL vector (not described); made in house; host or cells: Escherichia coli BL21(DE3)
In short: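 Coupled SAHH/ThioGlo4 fluorescence read-out (ex 380 nm, em 505 nm) of PRMT3 (0.25 μM) methylation with 30 μM AdoMet and 5 μM SAHH. Buffer was 20 mM Tris pH 7.5 with 0.01% Triton X-100. Run in duplicate.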
Target sequence in this assay (O60678 211-531): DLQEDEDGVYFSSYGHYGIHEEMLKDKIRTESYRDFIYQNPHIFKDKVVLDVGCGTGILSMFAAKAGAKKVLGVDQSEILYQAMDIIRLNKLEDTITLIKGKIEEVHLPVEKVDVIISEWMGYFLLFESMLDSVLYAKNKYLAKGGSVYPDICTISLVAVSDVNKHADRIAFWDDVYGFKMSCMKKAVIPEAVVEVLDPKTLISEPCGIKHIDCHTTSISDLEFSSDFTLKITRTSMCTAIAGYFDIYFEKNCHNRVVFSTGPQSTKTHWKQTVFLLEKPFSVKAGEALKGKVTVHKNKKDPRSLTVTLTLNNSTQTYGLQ

PRMT6 = PRMT6 (Homo sapiens, UniProt Q96LA8); assay: radioactive assay (Reaction Biology Corp.), inhibition of PRMT6; type: biochemical
Protocol: as §2, §3

PRMT4 [5] = target: T4, PRMT4 (Homo sapiens, UniProt Q86X55); assay: thermal shift assay PRMT4; type: binding; conditions: 100 μM compound, 20 μM protein
T4 construct: PRMT4 (residues 140-480) was cloned into the pFBOH-MHL vector; tag of the pFBOH-MHL vector (poly-His implied by Ni-NTA purification; not described); made in house; host or cells: Sf9 insect cells
Protocol: The fluorescence-based thermal shift assay was performed using a StepOne plus qPCR instrument (Thermal Fisher). For PRMT1, 10 μM of protein was mixed with 2× sypro orange and DMSO, or 100 μM SAM, or 100 μM YD1113, or 100 μM YD1290 in a buffer consisting of 2.5 mM HEPES (pH=7.0), 25 mM NaCl, 25 μM EDTA, 50 μM TCEP, 0.01% Triton X-100. For PRMT3, 20 μM of protein was mixed with 2× sypro orange and DMSO, or 100 μM SAM, or 100 μM YD1113, or 100 μM YD1290 in a buffer consisting of 20 mM Tris (pH=7.5), 0.01% Triton X-100. For PRMT4, 20 μM of protein was mixed with 2× sypro orange and DMSO, or 100 μM SAM, or 100 μM YD1113, or 100 μM YD1290 in a buffer consisting of 20 mM bicine (pH=8.5), 0.01% Triton X-100. All samples were heated from 25° C. to 75° C. at an increased rate of 0.5° C. per minute. Protein denaturation was monitored by the increased fluorescence signal of Sypro Orange, which captures exposed hydrophobic residues during thermal unfolding. The recorded curves were analyzed by the software StepOne plus and plotted in GraphPad Prism 8 software.
Next, the thermal shift assay (TSA) was conducted as an orthogonal method to examine the effects of YD1290 on the thermal stability of PRMT1, 3, and 4 (Figure S1).

PRMT1 = target: T5, PRMT1 (Homo sapiens, UniProt Q99873); assay: selectivity of YD1113/YD1290 on PRMT panel, PRMT1; type: biochemical; conditions: 10 μM; PRMT panel
T5 construct: made in house
Protocol: as §1
(§4) Next, the selectivity of YD1113 was investigated on a panel of PRMTs at 10 μM.
(§5) After validating the benzyl urea moiety as an unconventional homocysteine mimic of SAH for PRMTs, it was hypothesized that incorporating the benzyl urea moiety into the original pan PRMT inhibitor II757 would build a potent bisubstrate inhibitor. […] To enable a stable tri-substitution, the sulfur atom with a nitrogen atom was replaced. YD1290 was synthesized following the reported methods 9, 15 and tested in a radioactivity assay for PRMTs (FIG. 6b).

PRMT8 [6] = target: T1, PRMT8; assay: selectivity of YD1113/YD1290 on PRMT panel, PRMT8; type: biochemical; conditions: 10 μM; PRMT panel
Protocol: as §1, §4, §5

PRMT3 [7] = target: T3, PRMT3; assay: selectivity of YD1113/YD1290 on PRMT panel, PRMT3; type: biochemical
In short: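 Radioactivity-based PRMT activity assay run by an external provider; YD1113 profiled across the PRMT panel at 10 μM.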
Target sequence in this assay (O60678 whole entry, species assumed, the tested form may be a part): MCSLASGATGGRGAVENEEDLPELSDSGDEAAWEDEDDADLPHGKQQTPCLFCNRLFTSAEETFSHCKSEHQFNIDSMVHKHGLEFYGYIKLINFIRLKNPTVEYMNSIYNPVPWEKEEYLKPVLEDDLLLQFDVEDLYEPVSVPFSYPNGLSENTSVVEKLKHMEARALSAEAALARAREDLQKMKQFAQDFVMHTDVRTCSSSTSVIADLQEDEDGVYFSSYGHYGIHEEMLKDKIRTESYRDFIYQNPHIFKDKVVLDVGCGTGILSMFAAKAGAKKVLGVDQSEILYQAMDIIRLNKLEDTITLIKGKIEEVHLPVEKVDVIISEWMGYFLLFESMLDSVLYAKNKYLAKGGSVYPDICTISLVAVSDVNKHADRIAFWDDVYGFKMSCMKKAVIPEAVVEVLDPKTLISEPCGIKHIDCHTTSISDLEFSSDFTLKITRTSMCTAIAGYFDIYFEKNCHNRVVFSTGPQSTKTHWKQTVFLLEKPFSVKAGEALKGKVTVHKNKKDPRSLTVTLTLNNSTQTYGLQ

T1 sequence (Q9NR22 whole entry, species assumed): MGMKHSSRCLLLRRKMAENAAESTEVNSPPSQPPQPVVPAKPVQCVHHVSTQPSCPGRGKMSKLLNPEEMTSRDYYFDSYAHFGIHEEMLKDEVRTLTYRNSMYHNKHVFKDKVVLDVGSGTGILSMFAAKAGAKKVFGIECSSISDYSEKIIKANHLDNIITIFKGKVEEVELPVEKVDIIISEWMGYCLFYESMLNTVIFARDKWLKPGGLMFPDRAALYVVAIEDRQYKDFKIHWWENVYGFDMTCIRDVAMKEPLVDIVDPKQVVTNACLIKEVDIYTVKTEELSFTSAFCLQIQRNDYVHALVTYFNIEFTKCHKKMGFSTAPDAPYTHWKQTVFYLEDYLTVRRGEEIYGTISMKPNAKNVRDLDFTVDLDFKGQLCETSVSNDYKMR
PRMT6, sequence (Q96LA8 whole entry, species assumed): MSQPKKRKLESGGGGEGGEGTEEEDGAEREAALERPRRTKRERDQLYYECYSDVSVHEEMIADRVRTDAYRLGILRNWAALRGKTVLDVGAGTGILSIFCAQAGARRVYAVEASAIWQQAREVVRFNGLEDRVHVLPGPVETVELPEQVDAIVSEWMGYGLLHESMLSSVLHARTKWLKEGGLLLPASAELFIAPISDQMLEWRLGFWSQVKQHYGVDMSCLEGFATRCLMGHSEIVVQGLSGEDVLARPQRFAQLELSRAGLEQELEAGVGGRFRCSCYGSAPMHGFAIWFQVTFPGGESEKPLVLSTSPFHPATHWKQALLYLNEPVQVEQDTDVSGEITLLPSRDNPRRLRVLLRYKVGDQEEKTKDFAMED
T5 sequence (Q99873 whole entry, species assumed): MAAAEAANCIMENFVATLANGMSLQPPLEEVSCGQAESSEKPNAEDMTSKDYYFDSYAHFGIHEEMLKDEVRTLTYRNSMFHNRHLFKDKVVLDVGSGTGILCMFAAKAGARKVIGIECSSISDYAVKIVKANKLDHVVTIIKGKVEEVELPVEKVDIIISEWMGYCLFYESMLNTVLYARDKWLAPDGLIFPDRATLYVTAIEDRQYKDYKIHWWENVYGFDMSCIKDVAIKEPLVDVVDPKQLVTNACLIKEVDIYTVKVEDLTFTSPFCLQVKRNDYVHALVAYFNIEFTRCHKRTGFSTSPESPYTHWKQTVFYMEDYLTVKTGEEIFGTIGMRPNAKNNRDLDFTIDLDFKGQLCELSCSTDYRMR

IC50 (PRMT3/4/5): 138 to 351 nM
inhibition at 10 µM (PRMT8 [1]): 12%
IC50 (PRMT4 [2]): 140 ± 13 nM
inhibition at 10 µM (PRMT4 [3]): 97%
inhibition at 10 µM (PRMT3 [4]): 80%
inhibition at 10 µM (PRMT6): 89%
ΔTm at 100 µM (PRMT4 [5]): 2.6 °C
inhibition at 10 µM (PRMT1): < 35%
inhibition at 10 µM (PRMT8 [6]): < 35%
IC50 (PRMT3 [7]): 321 nM
SMILES: Nc1ncnc2c1ncn2[C@@H]1O[C@H](CSCCNC(=O)NCc2ccccc2)[C@@H](O)[C@H]1O [Compound 7a, 1-(2-((((2S,3S,4R,5R)-5-(6-amino-9H-purin-9-yl)-3,4-dihydroxytetrahydrofuran-2-yl)methyl)thio)ethyl)-3-benzylurea]
